Test results published in US8236509B2, “Method for preparing antibody monolayers which have controlled orientation using peptide hybrid” (Korea Research Institute of Bioscience and Biotechnology, priority 2007, dated 2012).
“Also recorded” adds a separate entry of the source.

Assays:
goat originated antibody = test: SPR binding capacity on peptide-hybrid-treated CM-5 Au sensor chip
Procedure: (§1) Then, PBS containing 100 μM of the peptide hybrid was spilled thereon at the same speed for 30 minutes. […] The surface area remaining non-reacted with the peptide hybrid was inactivated by using 1 M of ethanolamine solution (pH 8.5).

[1] = tested on: human originated IgG (HIgGs 1-3); test: as above
Procedure: as §1

[2] = tested on: mouse originated antibodies (mixed composition of MIgGs 1-3); test: as above
Procedure: as §1

rabbit originated IgG [3] = target: T1, rabbit originated IgG (Oryctolagus cuniculus, UniProt P01870); test: as above
T1 construct: purchased Sigma-Aldrich (USA)
T1 sequence (P01870 whole entry): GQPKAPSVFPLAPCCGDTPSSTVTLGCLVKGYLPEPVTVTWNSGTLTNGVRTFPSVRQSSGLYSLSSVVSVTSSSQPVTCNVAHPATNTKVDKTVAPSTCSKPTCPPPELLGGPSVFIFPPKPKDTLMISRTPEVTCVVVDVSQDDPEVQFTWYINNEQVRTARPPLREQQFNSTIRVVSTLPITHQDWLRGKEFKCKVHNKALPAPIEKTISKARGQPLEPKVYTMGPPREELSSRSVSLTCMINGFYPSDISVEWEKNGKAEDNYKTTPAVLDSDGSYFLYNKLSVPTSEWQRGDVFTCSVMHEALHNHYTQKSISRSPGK
Procedure: as §1

BSA = BSA (Bos taurus, UniProt P02769); test: SPR binding capacity on peptide-hybrid-treated CM-5 Au sensor chip (control protein)
Procedure: as §1

HIgG1 [4] = test: SPR binding capacity, antibody isotypes; design: species or system human; conditions: CM-5 Au sensor chip
Procedure: as §1

HIgG2 = test: SPR binding capacity, antibody isotypes; design: species or system human; conditions: CM-5 Au sensor chip
Procedure: as §1

HIgG3 = test: SPR binding capacity, antibody isotypes; design: species or system human; conditions: CM-5 Au sensor chip
Procedure: as §1

MIgG2 = test: SPR binding capacity, antibody isotypes; design: species or system mouse; conditions: CM-5 Au sensor chip
Procedure: as §1

MIgG3 = test: SPR binding capacity, antibody isotypes; design: species or system mouse; conditions: CM-5 Au sensor chip
Procedure: as §1

MIgGA = test: SPR binding capacity, antibody isotypes; design: species or system mouse; conditions: CM-5 Au sensor chip
Procedure: as §1

MIgG1 = target: T2, MIgG1 (Mus musculus, UniProt P01868); test: SPR binding capacity, antibody isotypes; conditions: CM-5 Au sensor chip
T2 construct: purchased Sigma-Aldrich (USA)
Procedure: as §1

HIgG1 [5] = test: SPR binding affinity (Biacore 3000, nonlinear regression); design: species or system human; conditions: antibody 100-1,000 nM, CM-5 chip
Procedure: The values were analyzed by nonlinear regression using BIAevaluation software equipped in Biacore 3000 to draw a theoretical line graph (FIG. 4a).

CRP = conditions: SPR, CRP 5 μg/ml, anti-CRP antibody immobilized via the hybrid
Procedure: Then, PBS containing CRP at the same concentration as the above was spilled thereon, followed by measuring the antigen-antibody binding by surface plasmon resonance (SPR) using Biacore 3000. The surface of the chip was recovered by 20 mM NaOH solution for the repeat of the experiment to measure the antigen-antibody binding.
A buffer containing 0.2 M EDC and 0.05 M NHS was spilled on the dextran CM-5 Au sensor chip (BIacore AB, Sweden) at the speed of 7 μl/minute to activate carboxyl group on the surface of the sensor chip. Then, PBS containing 5 μg/ml of anti-CRP antibody was spilled thereon for 30 minutes at the same speed. The antibody was bound via the reaction of the terminal amine group with the carboxyl group on the sensor chip activated as NHS ester form. The surface not reacted with the antibody was inactivated by using 1 M ethanolamine solution (pH 8.5).
PBS containing 5 μg/ml of CRP was spilled on the anti-CRP antibody chip with the chemical immobilization and the anti-CRP antibody chip with the immobilization by the peptide hybrid of 1a respectively at the speed of 10 μl/minute, followed by measuring the degree of antigen-antibody binding by surface plasmon resonance using Biacore 3000.

[6] = Stability of peptide-treated chip surface to washing with 20 mM NaOH and reuse; assay type: physicochemical; conditions: CM-5 chip, reused for antigen-antibody binding
goat originated IgG = test: Antibody binding to magnetic micro beads surface-treated with peptide hybrid (PAGE); conditions: antibody 0.1 mg/ml, bead 2 mg/ml
Procedure: (§2) The surface of the magnetic micro bead containing a carboxyl group was activated by loading 25 mM of MES (pH 6) containing NHS (0.4 M) and EDC (0.2 M). Only magnetic micro bead was recovered by using a magnet and the activated magnetic micro bead was reacted with 0.2 mg/ml of the peptide hybrid of 1a at room temperature for one hour. The activated magnetic micro bead was reacted with PBS alone for the control group. Non-reacted active ester group was inactivated by using 1 M of ethanolamine (pH 8.5). Both the magnetic micro bead with the peptide hybrid of 1a attached and the magnetic micro bead without the peptide hybrid of 1a were repeatedly washed by PBS and diluted in PBS (final concentration: 5 mg/ml).
(§3) To confirm the binding of the magnetic micro bead adhered with the peptide hybrid of 1a to the antibody, 2 mg/ml (final concentration) of the magnetic micro bead and 0.1 mg/ml of the antibody used in Example <3-2> were mixed to induce binding reaction. After inducing reaction for one hour at room temperature, the magnetic micro bead was dragged down to the bottom of the vessel by using a magnet and the supernatant was eliminated. This process was repeated five times to remove the non-reacted antibodies. The magnetic micro bead reacted with the antibody was added in PAGE loading buffer containing a reducing agent (2-mercaptoethanol), which was heated to separate the antibody chain from the magnetic micro bead, followed by PAGE.
(§4) The antibody bound to the magnetic micro bead was quantified by using 12% polyacrylamide gel containing 10% SDS. Particularly, 20 μl of PBS containing 2% micro bead was mixed with 5 μl of sample buffer (pH 6.8; 60 mM Tris-HCl, 25% glycerol, 2% SDS, 14.4 mM 2-mercaptoethanol, 0.1% bromophenol blue, H2O), followed by heating at 90° C. for 10 minutes. 15 μl of the sample was placed on each well of polyacrylamide gel. 200 V of voltage was applied thereto at room temperature for one hour to migrate sample, followed by dipping the gel in the staining solution (0.5% coomassie blue, 45% methanol, 10% acetic acid solution) at room temperature for 30 minutes. Upon completion of staining, the gel was transferred into the destaining solution (10% methanol, 10% acetic acid solution), followed by stirring at room temperature for 3 hours. The excessive staining reagent was eliminated by washing.

human originated HIgG = test: as above; conditions: antibody 0.1 mg/ml, bead 2 mg/ml
Procedure: as §2, §3, §4

mouse originated IgG = test: as above; conditions: antibody 0.1 mg/ml, bead 2 mg/ml
Procedure: as §2, §3, §4

rabbit originated IgG [7] = target: T1, rabbit originated IgG; test: as above; conditions: antibody 0.1 mg/ml, bead 2 mg/ml
Procedure: as §2, §3, §4

[8] = tested on: HIgG (mixture of HIgG 1-HIgG 3); test: Cy3-labeled antibody binding to glass plate surface-treated with peptide hybrid (fluorescence); design: species or system human; conditions: fluorescence image
Procedure: (§5) The glass plate was treated with a mixed solution of 95% sulfuric acid and 5% hydrogen peroxide (V/V 3:1) at 60° C. for 30 minutes, followed by washing with distilled water and ethanol. The washed glass plate was soaked in 1% APTS, followed by reaction for 4 hours at room temperature to introduce amine group. The amine group introduced glass plate was reacted in 1 M succinic anhydride-DMF solution at 37° C. for 4 hours to generate carboxyl group on the glass plate. The glass plate was washed with distilled water and ethanol and dried using nitrogen gas and then stored in a vacuum drier. The carboxyl group introduced glass plate was treated with a mixed solution of 0.1 M EDC and 0.025 M NHS for 15 minutes to activate its surface. The activated glass plate was washed with distilled water and dried using nitrogen gas. The peptide hybrid for protein immobilization of 1a was dissolved in PBS containing 40% glycerol at the final concentration of 0.5 mg/ml, which was dropped on the glass plate by 1 μl per each drop, followed by reaction for 2 hours. The non-reacted active ester remaining on the glass plate was inactivated by using 1 M of ethanolamine (pH 8.5) and washed with PBS. […]

goat IgG = test: as above; conditions: fluorescence image
Procedure: as §5

[9] = tested on: MIgG (mixture of MIgG 1-MIgG 3); test: as above; design: species or system mouse; conditions: fluorescence image
Procedure: as §5

[10] = Storage stability of glass plate surface-treated with peptide hybrid; assay type: physicochemical; conditions: several months storage at room temperature
Procedure: The glass plate was treated with a mixed solution of 95% sulfuric acid and 5% hydrogen peroxide (V/V 3:1) at 60° C. for 30 minutes, followed by washing with distilled water and ethanol. The washed glass plate was soaked in 1% APTS, followed by reaction for 4 hours at room temperature to introduce amine group. The amine group introduced glass plate was reacted in 1 M succinic anhydride-DMF solution at 37° C. for 4 hours to generate carboxyl group on the glass plate. The glass plate was washed with distilled water and ethanol and dried using nitrogen gas and then stored in a vacuum drier. The carboxyl group introduced glass plate was treated with a mixed solution of 0.1 M EDC and 0.025 M NHS for 15 minutes to activate its surface. The activated glass plate was washed with distilled water and dried using nitrogen gas. The peptide hybrid for protein immobilization of 1a was dissolved in PBS containing 40% glycerol at the final concentration of 0.5 mg/ml, which was dropped on the glass plate by 1 μl per each drop, followed by reaction for 2 hours. The non-reacted active ester remaining on the glass plate was inactivated by using 1 M of ethanolamine (pH 8.5) and washed with PBS.
The Cy3 labeled antibody solution was dropped on the glass plate surface-treated with the hybrid of 1a by 50 μl per each drop, followed by reaction for one hour at room temperature. […]

rabbit IgG [11] = target: T3, rabbit IgG (Oryctolagus cuniculus, UniProt P01870); test: biochemical
T3 sequence (P01870 whole entry): as above

rabbit IgG [12] = target: T3, rabbit IgG; test: Cy3-labeled antibody binding to glass plate surface-treated with peptide hybrid (fluorescence); design: purchased Sigma-Aldrich (USA); conditions: fluorescence image
Procedure: as §5

[13] = tested on: human, rabbit, mouse and goat antibodies; test: SPR binding capacity on peptide-hybrid-treated CM-5 Au sensor chip, different antibodies; conditions: antibody 5 μg/ml in PBS
Procedure: as §1

## CC(C)C[C@@H]1NC(=O)[C@H](Cc2c[nH]cn2)NC(=O)[C@H](Cc2c[nH]c3ccccc23)NC(=O)[C@H](C)NC(=O)[C@@H](NC(=O)[C@H](CC(=O)O)NC(=O)[C@H](CC(=O)O)NC(=O)[C@H](CCC(=O)O)NC(=O)CCOCCOCCN)CSSC[C@@H](C(=O)N[C@H](C(N)=O)[C@@H](C)O)NC(=O)[C@H](Cc2c[nH]c3ccccc23)NC(=O)[C@H](C(C)C)NC(=O)[C@H](CC(C)C)NC(=O)[C@H](CCC(=O)O)NC(=O)CNC1=O [formula 1a, H2N(CH2CH2O)2CH2CH2COEDDC*AWHLGELVWC*T-CONH2]
Goat originated antibody
  binding to goat originated antibody (SPR), in words: not successfully immobilized; also recorded: only at minimum level
[1]
  binding to human originated antibodies (SPR), in words: immobilized effectively
[1]; saturated level
  SPR binding level, human originated IgG: 12000 RU
[2]
  binding to mouse originated antibodies (SPR), in words: not successfully immobilized; also recorded: only at minimum level
Rabbit originated IgG [3]
  binding to rabbit originated antibodies (SPR), in words: immobilized effectively
Rabbit originated IgG [3]; saturated level
  SPR binding level, rabbit originated IgG: 12000 RU
BSA
  binding to BSA (SPR), in words: not bound
HIgG1 [4]
  binding to HIgG1 (SPR), in words: particularly strongly bound; also recorded: effectively bound
HIgG2
  binding to HIgG2 (SPR), in words: particularly strongly bound; also recorded: effectively bound
HIgG3
  binding to HIgG3 (SPR), in words: barely bound
MIgG2
  binding to MIgG2 (SPR), in words: hardly bound
MIgG3
  binding to MIgG3 (SPR), in words: to some degree
MIgGA
  binding to MIgGA (SPR), in words: hardly bound
MIgG1
  binding to MIgG1 (SPR), in words: hardly bound
HIgG1 [5]
  Kd: 85 nM
CRP
  antigen-antibody binding capacity relative to chip with chemically immobilized anti-CRP antibody: approximately 1.6 fold
[6]
  antibody binding capacity of the peptide-treated surface after washing with 20 mM NaOH: without reducing the antibody binding capacity; also recorded: antibody binding capacity was not reduced
Goat originated IgG
  binding to goat originated IgG, magnetic micro bead: not
Human originated HIgG
  binding to human originated HIgG, magnetic micro bead: effectively bound
Mouse originated IgG
  binding to mouse originated IgG, magnetic micro bead: not
Rabbit originated IgG [7]
  binding to rabbit originated IgG, magnetic micro bead: effectively bound
[8]
  binding of human originated antibodies to glass plate: bound very well
Goat IgG
  binding of goat originated antibodies to glass plate: not bound well
[9]
  binding of mouse originated antibodies to glass plate: not bound well
[10]
  antibody binding capacity of surface-treated glass plate after storage: maintain its antibody binding capacity
Rabbit IgG [11]
  Kd: 305 nM
Rabbit IgG [12]
  binding of rabbit originated antibodies to glass plate: bound very well

## H2N(CH2CH2O)nCH2CH2COXDC*AWHLGELVWC*T-CONH2 [formula 1]
[13]
  binding to the different types of antibodies (SPR): strongly attached
[1]
  binding to human originated antibodies (SPR), in words: strongly bound
Rabbit originated IgG [3]
  binding to rabbit originated antibodies (SPR), in words: strongly bound
